Results reported in PubChem BioAssay (NCI).
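Grown in 96-well plates, cells were treated for 48 hours with each compound at five concentrations. Insufficient inhibition: endpoint recorded as highest concentration tested. GI50 marks 50% less growth. TGI denotes the concentration required for complete inhibition of growth.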

Key:
Assay in all cases: NCI-60 cell line screen, 48 h
[1] = system: 786-0 renal
[2] = system: A498 renal
[3] = system: A549 NSCLC
[4] = system: ACHN renal
[5] = system: BT-549 breast
[6] = system: CAKI-1 renal
[7] = system: CCRF-CEM leukemia
[8] = system: COLO 205 colon
[9] = system: DU-145 prostate
[10] = system: HCC-2998 colon
[11] = system: HCT-116 colon
[12] = system: HCT-15 colon
[13] = system: HL-60(TB) leukemia
[14] = system: HOP-62 NSCLC
[15] = system: HOP-92 NSCLC
[16] = system: HS 578T breast
[17] = system: HT29 colon
[18] = system: IGROV1 ovarian
[19] = system: K-562 leukemia
[20] = system: KM12 colon
[21] = system: M14 melanoma
[22] = system: MALME-3M melanoma
[23] = system: MCF7 breast
[24] = system: MDA-MB-231 breast
[25] = system: MDA-MB-435
[26] = system: MOLT-4 leukemia
[27] = system: NCI-H226 lung
[28] = system: NCI-H23 lung
[29] = system: NCI-H460 lung
[30] = system: NCI-H522 lung
[31] = system: NCI/ADR-RES ovarian
[32] = system: OVCAR-3 ovarian
[33] = system: OVCAR-4 ovarian
[34] = system: OVCAR-5 ovarian
[35] = system: OVCAR-8 ovarian
[36] = system: PC-3 prostate
[37] = system: RPMI-8226 leukemia
[38] = system: RXF 393 renal
[39] = system: SF-268 CNS
[40] = system: SF-295 CNS
[41] = system: SF-539 CNS
[42] = system: SK-MEL-28 melanoma
[43] = system: SK-MEL-5 melanoma
[44] = system: SK-OV-3 ovarian
[45] = system: SN12C renal
[46] = system: SNB-19 CNS
[47] = system: SNB-75 CNS
[48] = system: SR leukemia
[49] = system: SW-620 colon
[50] = system: T-47D breast
[51] = system: TK-10 renal
[52] = system: U251 CNS
[53] = system: UACC-257 melanoma
[54] = system: UACC-62 melanoma
[55] = system: UO-31 renal

`Nc1c(C(=O)Nc2cccc(Br)c2)sc2nc3c(cc12)C(=O)CCC3` was tested, and the GI50 [1] was 860 nM, the TGI [1] was > 100000 nM and the GI50 [2] was 189 nM. For the same molecule, the TGI [2] was 8330 nM, the GI50 [3] was 500 nM and the TGI [3] was > 100000 nM. For the same molecule, the GI50 [4] was 15700 nM, the TGI [4] was > 100000 nM and the GI50 [5] was 3100 nM. For the same molecule, the TGI [5] was > 100000 nM, the GI50 [6] was 615 nM and the TGI [6] was > 100000 nM. For the same molecule, the GI50 [7] was 393 nM, the TGI [7] was > 100000 nM and the GI50 [8] was 401 nM. The GI50 [9] was 426 nM, the TGI [9] was > 61600 nM and the GI50 [10] was 1460 nM. For the same molecule, the TGI [10] was > 53200 nM, the GI50 [11] was 534 nM and the TGI [11] was > 100000 nM. The GI50 [12] was 468 nM, the TGI [12] was > 100000 nM and the GI50 [13] was 408 nM. For the same molecule, the TGI [13] was > 100000 nM, the GI50 [14] was 1410 nM and the TGI [14] was > 100000 nM. For the same molecule, the GI50 [15] was 640 nM, the TGI [15] was 86200 nM and the GI50 [16] was 597 nM. The TGI [16] was 83500 nM, the GI50 [17] was 370 nM and the TGI [17] was > 100000 nM. The GI50 [18] was 1730 nM, the TGI [18] was > 100000 nM and the GI50 [19] was 140 nM. For the same molecule, the TGI [19] was > 100000 nM, the GI50 [20] was 349 nM and the TGI [20] was > 100000 nM. The GI50 [21] was 568 nM, the TGI [21] was > 100000 nM and the GI50 [22] was 579 nM. For the same molecule, the TGI [22] was > 100000 nM, the GI50 [23] was 373 nM and the TGI [23] was > 100000 nM. It also gave a GI50 [24] of 1680 nM, a TGI [24] of 61100 nM and a GI50 [25] of 91.5 nM. For the same molecule, the TGI [25] was 348 nM, the GI50 [26] was 18500 nM and the TGI [26] was > 100000 nM. The GI50 [27] was 16800 nM, the TGI [27] was > 100000 nM and the GI50 [28] was 583 nM. The TGI [28] was > 100000 nM, the GI50 [29] was 373 nM and the TGI [29] was > 100000 nM. The GI50 [30] was 248 nM, the GI50 [31] was 475 nM and the TGI [31] was > 100000 nM. For the same molecule, the GI50 [32] was 359 nM, the TGI [32] was > 46500 nM and the GI50 [33] was 28500 nM. The TGI [33] was > 100000 nM, the GI50 [34] was 6820 nM and the TGI [34] was > 100000 nM. The GI50 [35] was 33700 nM, the TGI [35] was > 100000 nM and the GI50 [36] was 457 nM. For the same molecule, the TGI [36] was > 100000 nM, the GI50 [37] was > 49900 nM and the TGI [37] was > 100000 nM. For the same molecule, the GI50 [38] was 372 nM, the TGI [38] was 15900 nM and the GI50 [39] was 19500 nM. For the same molecule, the TGI [39] was > 100000 nM, the GI50 [40] was 455 nM and the TGI [40] was > 59700 nM. For the same molecule, the GI50 [41] was 448 nM, the TGI [41] was > 100000 nM and the TGI [42] was > 100000 nM. The GI50 [43] was 400 nM, the TGI [43] was > 100000 nM and the GI50 [44] was 501 nM. The TGI [44] was > 100000 nM, the GI50 [45] was 779 nM and the TGI [45] was > 100000 nM. The GI50 [46] was 7340 nM, the TGI [46] was > 100000 nM and the GI50 [47] was 486 nM. The TGI [47] was > 52200 nM, the GI50 [48] was 525 nM and the TGI [48] was > 100000 nM. The GI50 [49] was 426 nM, the TGI [49] was > 100000 nM and the GI50 [50] was 2130 nM. For the same molecule, the TGI [50] was > 100000 nM, the GI50 [51] was 13900 nM and the TGI [51] was > 100000 nM. The GI50 [52] was 517 nM, the TGI [52] was > 100000 nM and the GI50 [53] was > 100000 nM. The TGI [53] was > 100000 nM, the GI50 [54] was 516 nM and the TGI [54] was > 100000 nM. For the same molecule, the GI50 [55] was 3070 nM and the TGI [55] was > 100000 nM.
